# Laboratory results reported in ChEMBL document CHEMBL5046292, “Resveratrol-Based MTDLs to Stimulate Defensive and Regenerative Pathways and Block Early Events in Neurodegenerative Cascades” (J Med Chem, 2022).
# The source made the active and inactive calls. No cut-off for these calls is given here.
# Assays:
# [1] = molecular target: T1, Nuclear factor erythroid 2-related factor 2 (Homo sapiens) (UniProt Q16236); conditions: Arec32, time 24.0 hrs
# T1 sequence (whole entry): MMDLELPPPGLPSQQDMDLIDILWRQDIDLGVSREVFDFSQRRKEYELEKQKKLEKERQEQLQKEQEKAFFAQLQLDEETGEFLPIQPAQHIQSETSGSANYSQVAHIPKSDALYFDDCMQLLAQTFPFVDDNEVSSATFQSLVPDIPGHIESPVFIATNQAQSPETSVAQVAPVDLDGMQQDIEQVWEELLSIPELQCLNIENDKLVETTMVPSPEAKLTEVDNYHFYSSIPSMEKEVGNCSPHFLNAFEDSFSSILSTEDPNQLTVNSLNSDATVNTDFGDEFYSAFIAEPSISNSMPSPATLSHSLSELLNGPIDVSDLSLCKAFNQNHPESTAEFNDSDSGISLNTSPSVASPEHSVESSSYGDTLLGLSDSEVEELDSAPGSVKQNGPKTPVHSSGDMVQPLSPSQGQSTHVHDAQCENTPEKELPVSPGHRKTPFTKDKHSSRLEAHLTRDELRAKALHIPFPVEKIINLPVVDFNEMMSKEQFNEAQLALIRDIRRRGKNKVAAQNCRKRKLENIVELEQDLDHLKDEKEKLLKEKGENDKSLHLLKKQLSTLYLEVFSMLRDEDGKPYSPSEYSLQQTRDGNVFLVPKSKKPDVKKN
# in vitro = conditions: PAMPA, pH 7.4
# Description: Permeability of compound in PBS buffer at pH 7.4 by PAMPA-BBB assay
# SH-SY5Y = assay: (§1) Cytotoxicity against human SH-SY5Y cells assessed as cell viability at 100 uM incubated for 24 hrs by MTT assay; assay type: toxicity, cell-based; conditions: sh-sy5y, 24 h, 100 µM
# Hippocampal neurone [2] = assay: Induction of neurogenesis in C57BL/6 mouse assessed as increase in cell migration distance by confocal microscopic analysis; assay type: functional, cell-based
# Hippocampal neurone [3] = assay: Induction of neurogenesis in C57BL/6 mouse hippocampus neurospheres assessed as upregulation of TuJ-1 by confocal microscopic analysis; assay type: functional, cell-based
# [4] = molecular target: T2, Amine oxidase [flavin-containing] B (Homo sapiens, UniProt P27338); assay: Inhibition of human recombinant MAO-B at 2 microM preincubated upto 30 mins using tyramine as substrate by fluorescence assay relative to control; conditions: TDE = time-dependent effect
# T2 sequence (P27338 whole entry): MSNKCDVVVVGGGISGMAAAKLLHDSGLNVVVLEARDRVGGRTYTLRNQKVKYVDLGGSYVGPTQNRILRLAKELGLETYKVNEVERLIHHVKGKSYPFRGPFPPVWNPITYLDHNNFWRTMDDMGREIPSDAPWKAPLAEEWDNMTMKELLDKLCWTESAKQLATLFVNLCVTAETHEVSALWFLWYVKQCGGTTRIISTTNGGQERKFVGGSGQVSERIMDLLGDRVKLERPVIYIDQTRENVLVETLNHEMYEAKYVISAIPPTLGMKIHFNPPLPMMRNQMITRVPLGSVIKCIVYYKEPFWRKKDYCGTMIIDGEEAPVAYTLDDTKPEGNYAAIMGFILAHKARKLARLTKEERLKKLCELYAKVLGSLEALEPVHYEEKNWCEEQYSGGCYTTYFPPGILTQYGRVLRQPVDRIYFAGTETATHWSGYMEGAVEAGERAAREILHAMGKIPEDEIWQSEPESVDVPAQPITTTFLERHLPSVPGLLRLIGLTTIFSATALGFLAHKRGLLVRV
# Hippocampal neurone [5] = assay: Induction of neurogenesis in C57BL/6 mouse hippocampus neurospheres assessed as upregulation of MAP-2 by confocal microscopic analysis; assay type: functional, cell-based
# [6] = as §1; assay type: toxicity, cell-based; conditions: SH-SY5Y cells, read-out: Activity
# Hippocampus [7] = assay: Neuroprotective activity in okadaic acid-induced toxicity in C57BL/6J mouse hippocampus slice assessed as cell viability at 1 uM measured after 6 hrs by MTT assay; assay type: functional, tissue-based
# Hippocampus [8] = assay: Neuroprotective activity in okadaic acid-induced toxicity in C57BL/6J mouse hippocampus slice assessed reduction in ROS level at 1 uM after 6 hrs by H2DCFDA probe based fluorescence analysis; assay type: functional, tissue-based
# Hippocampus [9] = assay: Neuroprotective activity in okadaic acid-induced toxicity in C57BL/6J mouse hippocampus slice assessed cell death at 1 uM after 6 hrs by propidium iodide staining; assay type: functional, tissue-based
# [10] = molecular target: T2, Amine oxidase [flavin-containing] B; assay: Inhibition of human recombinant MAO-B at 15 microM preincubated upto 30 mins using tyramine as substrate by fluorescence assay relative to control; conditions: TDE = time-dependent effect
# Hippocampus [11] = assay: Down regulation of okadaic acid induced p65 expression in C57BL/6J mouse hippocampus slice at 1 uM by Western blotting analysis; assay type: functional, tissue-based
# Hippocampus [12] = assay: Down regulation of okadaic acid induced HO-1 expression in C57BL/6J mouse hippocampus slice at 1 uM by Western blotting analysis; assay type: functional, tissue-based
# [13] = GSH reactivity in presence glutathione-S-transferas by HPLC-MS analysis; assay type: physicochemical
# Hippocampus [14] = assay: Down regulation of okadaic acid-induced inducible nitric oxide synthase expression in C57BL/6J mouse hippocampus slice at 1 uM by Western blotting analysis; assay type: functional, tissue-based
smiles,measurement,setting,value
C#CCNC(=O)/C=C/c1cccc(C#N)c1,CD,[1],> 60 µM
C#CCNC(=O)/C=C/c1ccc(O)c(OC)c1,Papp,in vitro,≤ 0.5 ×10⁻⁶ cm/s
same,CD,[1],> 60 µM
O=c1[nH]nc(/C=C/c2ccc(O)c(O)c2)o1,Activity,SH-SY5Y,Non-Toxic
O=c1[nH]nc(/C=C/c2cccc([N+](=O)[O-])c2)o1,Activity,Hippocampal neurone [2],Active
same,Activity,Hippocampal neurone [3],Active
same,Activity,[4],Tde
same,Activity,Hippocampal neurone [5],Active
O=c1[nH]nc(/C=C/c2cc(O)cc(O)c2)o1,Papp,in vitro,≤ 0.1 ×10⁻⁶ cm/s
same,CD,[1],> 60 µM
O=c1[nH]nc(/C=C/c2cccc(O)c2)o1,Papp,in vitro,≤ 0.5 ×10⁻⁶ cm/s
same,Activity,Hippocampal neurone [2],Active
same,Activity,Hippocampal neurone [3],Active
same,Activity,Hippocampal neurone [5],Active
same,CD,[1],> 60 µM
COc1ccc(/C=C/c2n[nH]c(=O)o2)cc1,CD,[1],> 60 µM
COc1cccc(/C=C/c2n[nH]c(=O)o2)c1,Activity,Hippocampal neurone [2],Active
same,Activity,Hippocampal neurone [3],Active
same,Activity,Hippocampal neurone [5],Active
same,CD,[1],> 60 µM
C#CCn1nc(/C=C/c2ccccc2)oc1=O,"viability at 24 h, 100 µM",[6],30%
C#CCNC(=O)/C=C/c1ccc(O)cc1,CD,[1],> 60 µM
C#CCNC(=O)/C=C/c1ccc(O)c(O)c1,Papp,in vitro,≤ 0.4 ×10⁻⁶ cm/s
same,Activity,SH-SY5Y,Non-Toxic
C#CCNC/C=C/c1ccc(O)c(OC)c1,Activity,SH-SY5Y,Non-Toxic
COc1ccc(/C=C/c2n[nH]c(=O)o2)cc1OC,CD,[1],> 60 µM
C#CCn1nc(/C=C/c2ccc(OC)cc2)oc1=O,Activity,Hippocampus [7],Active
same,Activity,Hippocampus [8],Active
same,Activity,Hippocampal neurone [2],Active
same,Activity,Hippocampus [9],Active
same,Activity,Hippocampal neurone [3],Active
same,Activity,Hippocampal neurone [5],Active
same,Activity,[10],Tde
same,Activity,Hippocampus [11],Active
same,Activity,Hippocampus [12],inactive
same,Activity,[13],Not Active
same,Activity,Hippocampus [14],Active
same,Activity,SH-SY5Y,Non-Toxic
O=c1[nH]nc(/C=C/c2ccc(O)cc2)o1,Papp,in vitro,≤ 0.7 ×10⁻⁶ cm/s
same,Activity,SH-SY5Y,Non-Toxic
Oc1ccc(/C=C/c2cc(O)cc(O)c2)cc1 [RESVERATROL],"viability at 24 h, 100 µM",[6],50%
C#CCn1nc(/C=C/c2cccc(OC)c2)oc1=O,Activity,Hippocampal neurone [2],Active
same,Activity,Hippocampal neurone [3],Active
same,Activity,Hippocampal neurone [5],Active
same,Activity,SH-SY5Y,Non-Toxic
COc1cc(/C=C/c2n[nH]c(=O)o2)cc(OC)c1OC,Papp,in vitro,≤ 0.5 ×10⁻⁶ cm/s
O=c1[nH]nc(/C=C/c2ccc3c(c2)OCO3)o1,CD,[1],> 60 µM
